From ChEMBL document CHEMBL6127035, “Novel pyridazinone derivatives bind to KSRP: Synthesis, anti-tumor biological evaluations and modelling insights” (Eur J Med Chem, 2024)
Each block holds one molecule with its values, some of them ahead of it.

Key:
4T1 = assay: Antiproliferative activity against mouse 4T1 cells assessed as reduction in cell viability incubated for 2 days by MTT assay; type: functional, cell-based; settings: 4T1, 48 h
MCF7 = assay: Antiproliferative activity against human MCF7 cells assessed as reduction in cell viability incubated for 2 days by MTT assay; type: functional, cell-based; settings: MCF7, 48 h
MDA-MB-231 = assay: Antiproliferative activity against human MDA-MB-231 cells assessed as reduction in cell viability incubated for 2 days by MTT assay; type: functional, cell-based; settings: MDA-MB-231, 48 h
NCI-H460 = assay: Antiproliferative activity against human NCI-H460 cells assessed as reduction in cell viability incubated for 2 days by MTT assay; type: functional, cell-based; settings: NCI-H460, 48 h
KB = assay: Antiproliferative activity against human KB cells assessed as reduction in cell viability incubated for 2 days by MTT assay; type: functional, cell-based; settings: 48 h
A549 = assay: Antiproliferative activity against human A549 cells assessed as reduction in cell viability incubated for 2 days by MTT assay; type: functional, cell-based; settings: A549, 48 h
HCT-116 = assay: Antiproliferative activity against human HCT-116 cells assessed as reduction in cell viability incubated for 2 days by MTT assay; type: functional, cell-based; settings: HCT-116, 48 h
U-87 MG = assay: Antiproliferative activity against human U-87 MG cells assessed as reduction in cell viability incubated for 2 days by MTT assay; type: functional, cell-based, U-87MG ATCC; settings: 48 h
MIA PaCa-2 = assay: Antiproliferative activity against human MIA PaCa-2 cells assessed as reduction in cell viability incubated for 2 days by MTT assay; type: functional, cell-based; settings: MIA PaCa-2, 48 h
[1] = Cytotoxicity against human L02 cells assessed as reduction in cell viability incubated for 2 days by MTT assay; type: toxicity, cell-based

SMILES: NCCCCNS(=O)(=O)c1ccc(-n2ncc(Cl)c(Cl)c2=O)cc1
IC50 (4T1): > 10 µM
IC50 (MCF7): > 20 µM
IC50 (MDA-MB-231): > 50 µM

SMILES: CNCCOc1cnn(-c2ccc(S(=O)(=O)N(C)CCOS(C)(=O)=O)cc2)c(=O)c1Cl
IC50 (4T1): > 10 µM
IC50 (MCF7): > 20 µM
IC50 (MDA-MB-231): > 50 µM

SMILES: CCN(CCCN1CCCC1)S(=O)(=O)c1ccc(-n2ncc(OC)c(Cl)c2=O)cc1
IC50 (4T1): > 20 µM
IC50 (MCF7): > 20 µM
IC50 (MDA-MB-231): > 20 µM

SMILES: CN(CCN(C)S(=O)(=O)c1ccc(-n2ncc(Cl)c(Cl)c2=O)cc1)S(=O)(=O)c1ccc(-n2ncc(Cl)c(Cl)c2=O)cc1
IC50 (4T1): > 10 µM
IC50 (MCF7): > 20 µM
IC50 (MDA-MB-231): > 50 µM

SMILES: COCC(C)NS(=O)(=O)c1ccc(-n2ncc(NCCCCCNC(=O)CCCC[C@@H]3SC[C@@H]4NC(=O)N[C@@H]43)c(Cl)c2=O)cc1 (stereo not given in full)
IC50 (KB): > 50 µM
IC50 (MIA PaCa-2): > 50 µM

Continued, in another order:

IC50 (4T1): > 10 µM
IC50 (MCF7): > 20 µM
IC50 (MDA-MB-231): 27.2 µM
SMILES: CCN(CCOCCNC(=O)OC(C)(C)C)S(=O)(=O)c1ccc(-n2ncc(Cl)c(Cl)c2=O)cc1

IC50 (4T1): 1.45 µM
IC50 (MCF7): 5.18 µM
IC50 (MDA-MB-231): 14.3 µM
IC50 (NCI-H460): 0.74 µM
IC50 (KB): 0.35 µM
IC50 (A549): 1.27 µM
IC50 (HCT-116): 0.36 µM
IC50 (U-87 MG): 0.36 µM
IC50 (MIA PaCa-2): 0.42 µM
SMILES: CC(C)C(CO)NS(=O)(=O)c1ccc(-n2ncc(Cl)c(Cl)c2=O)cc1 (stereo not given)
IC50 at 2 days [1]: 3.64 µM

IC50 (4T1): 11.3 µM
IC50 (MCF7): 4.1 µM
IC50 (MDA-MB-231): > 50 µM
SMILES: CCN(C)S(=O)(=O)c1ccc(-n2ncc(Cl)c(Cl)c2=O)cc1
